Measured values reported in US6737245B1, “Luciferase expression cassettes and methods of use” (priority 1999, dated 2004).

Type: in vivo
Conditions: four mice, IP at 0, 2, 4 and 6 hr, 500 μl of 0.1% and 0.01%, observed over 24 hours
Method: Four mice were injected IP at 0, 2, 4 and 6 hr with 500 μl volumes of n-decyl aldehyde at concentrations of 0.1% and 0.01%. Aldehyde solutions were prepared as follows: 100 μl of aldehyde was diluted in 900 μl of ethanol. 10 μl of this 10% solution was then diluted into 990 μl of sterile phosphate buffered saline (PBS) pH 7.4 to give a 0.1% final volume of aldehyde solution. The animals were observed over a 24-hour period.

CCCCCCCCCC=O [n-decyl aldehyde]
symptoms of illness or abnormal behavior: None of the mice showed any apparent symptoms of illness or abnormal behavior
